Data: publication PMC7414198, “Genomic and enzymatic evidence of acetogenesis by anaerobic methanotrophic archaea” (Nature Communications, 2020)
Like-named read-outs stand apart in the source and are kept apart here.

What was measured:
[1] = test system: acetyl-CoA synthetase (Acs) from ANME-2a; conditions: acetyl-CoA-forming direction; concentrations of ATP and CoA not given
[2] = test system: T1, ADP-forming acetate-CoA ligase (Acd) from ANME-2a; experiment: DTNB assay of HSCoA release, […] nm; format: biochemical, ANME-2 cluster archaeon (ANME-2a, uncultured); conditions: acetate-forming direction; 2 mM ADP, 40 mM K3PO4, 1 mM MgCl2, 20 mM Tris-HCl pH 8.0
T1 construct: alpha (55 kDa) and beta (25 kDa) subunits, codon-optimised synthetic genes in pET-28a (NdeI/BamHI and BamHI/SalI, RBS before beta), E. coli BL21(DE3)-groEL, Ni-NTA purified

[3] = test system: T2, acetyl-CoA synthetase (Acs) from ANME-2a; experiment: DTNB assay of HSCoA release, […] nm; format: biochemical, ANME-2 cluster archaeon (ANME-2a, uncultured); conditions: acetate-forming direction; 2 mM AMP, 2 mM PPi, 1.25 M KCl, 1 mM MgCl2, 20 mM Tris-HCl pH 8.0
T2 construct: codon-optimised synthetic gene in pET-28a (NdeI/BamHI), E. coli Rosetta(DE3), Ni-NTA purified, 70 kDa

Km [1] [µM] | Km [2] [µM] | Km [3] [µM] | SMILES
490 |  |  | CC(=O)O [acetate]
 | 31.3 | 8.5 | CC(=O)SCCNC(=O)CCNC(=O)[C@H](O)C(C)(C)COP(=O)(O)OP(=O)(O)OC[C@H]1O[C@@H](n2cnc3c(N)ncnc32)[C@H](O)[C@@H]1OP(=O)(O)O [acetyl-CoA]
